Results on 27 compounds are retold here after patent US4730005A, “Leukotriene antagonist” (SmithKline Beckman Corporation, priority 1986, dated 1988).

This assay addresses T1, leukotriene D4 (LTD4) induced contraction of guinea pig tracheal tissues (Cavia porcellus, UniProt Q2NNR5).
T1 construct: Guinea pig (adult male albino Hartley strain) tracheal spiral strips; from tissue; host or cells: guinea pig trachea (spiral strips, adult male albino Hartley strain)
T1 sequence (Q2NNR5 1-340): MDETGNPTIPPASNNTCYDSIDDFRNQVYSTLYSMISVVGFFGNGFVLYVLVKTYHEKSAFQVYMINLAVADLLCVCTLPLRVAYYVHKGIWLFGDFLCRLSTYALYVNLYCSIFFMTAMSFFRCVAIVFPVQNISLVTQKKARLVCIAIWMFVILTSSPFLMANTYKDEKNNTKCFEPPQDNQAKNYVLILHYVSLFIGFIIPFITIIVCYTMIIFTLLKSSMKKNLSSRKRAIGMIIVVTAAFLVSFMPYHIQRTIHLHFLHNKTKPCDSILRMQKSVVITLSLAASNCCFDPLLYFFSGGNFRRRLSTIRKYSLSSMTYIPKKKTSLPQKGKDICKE
The experiment in a line: in vitro inhibition of LTD4 induced contraction of guinea pig tracheal spiral strips. The class given is cell-based, guinea pig (adult male albino Hartley strain). The following applies: guinea pig trachea, LTD4 agonist, 30 min pretreatment with test compound. The procedure: The leukotriene antagonist activity of the compounds of this invention is measured by the ability of the compounds to inhibit the leukotriene induced contraction of guinea pig tracheal tissues in vitro and to inhibit leukotriene induced bronchoconstriction in guinea pigs in vivo. The following methodologies were employed: In vitro: Guinea pig (adult male albino Hartley strain) tracheal spiral strips of approximate dimensions 2 to 3 mm cross-sectional width and 3.5 cm length were bathed in modified Krebs buffer in jacketed 10 ml tissue bath and continously aerated with 95% 02 /5% CO2. The tissues were connected via silk suture to force displacement transducers for recording isometric tension. The tissues were equilibrated for 1 hr., pretreated for 15 minutes with meclofenamic acid (1 μM) to remove intrinsic prostaglandin responses, and then pretreated for an additional 30 minutes with either the test compound or vehicle control. A cumulative concentration-response curve for LTD4 on triplicate tissues was generated by successive increases in the bath concentration of the LTD4. In order to minimize intertissue variability, the contractions elicited by LTD4 were standardized as a percentage of the maximum response obtained to a reference agonist, carbachol (10 μM). Calculations: The averages of the triplicate LTD4 concentration-response curves both in the presence and absence of the test compound were plotted on log graph paper. The concentration of LTD4 needed to elicit 30% of the contraction elicited by carbachol was measured and defined as the EC30. The -log KB value for the test compound was determined by the following equations: [formula] In vivo: Anesthetized, spontaneously breathing guinea pigs (Adult male albino Hartley strain) were monitored on a Buxco pulmonary mechanics computer. Changes in airway resistance (RL) were calculated by the computer on a breath-by-breath basis at isovolumic points from signals measuring airflow and transpulmonary pressure using differential pressure transducers. Animals received either test compound or vehicle control intravenously via the jugular vein. LTD4 was then injected into the jugular vein. The bronchoconstriction produced was reflected by % changes in airways resistance relative to the baseline values obtained prior to injection of the test compound or vehicle control. Each guinea pig received either vehicle control or test compound.
As to `CCCCCCCCCCCCc1ccccc1C(SCC(=O)O)SCC(=O)O` [1 1 C12 H25 H, 3,5-dithia-4-(2-dodecylphenyl)heptanedioic acid], the Kb was 1.26 µM.
The figure for `O=C(O)CCSC(SCCC(=O)O)c1ccccc1CCCCCC/C=C\c1ccccc1` [2 2 (CH2)6CHCHphenyl H, 4,6-Dithia-5-[2-(8-phenyl-7(Z)-octenyl)phenyl]nonanedioic acid] is 0.631 µM; for `O=C(O)CCSC(SCCC(=O)O)c1ccccc1CCCCCCCSc1ccccc1` [2 2 C7 H4 S phenyl H, 4,6-Dithia-5-[2-(7-phenylthioheptyl)phenyl]nonanedioic acid] it is 0.398 µM.
Regarding `O=C(O)CCSC(SCCC(=O)O)c1ccccc1CCCCCCCCC1CCCCC1` [2 2 C8 H16 cyclohexyl H, 4,6-Dithia-5-[2-(8-cyclohexyloctyl)phenyl]nonanedioic acid], the Kb was 3.16 µM.
The figure for `O=C(O)CCSC(SCCC(=O)O)c1cc(C(F)(F)F)ccc1CCCCCCCCc1ccccc1` [2 2 C8 H16 phenyl CF3, 4,6-Dithia-5-[2-(8-phenyloctyl)-5-trifluoromethylphenyl]nonanedioic acid] is 0.251 µM.
The result for `O=C(O)CCSC(SCCC(=O)O)c1ccccc1CCCCCCCCc1ccc(C(F)(F)F)cc1` [2 2 C8 H16(4-CF3 phenyl) H, 4,6-Dithia-5-[2-(8-(4-trifluoromethylphenyl)octyl)phenyl]nonanedioic acid] reads 0.631 µM; that for `CCCCCCCCc1ccccc1C(SCCC(=O)O)SCCC(=O)O` [2 2 C8 H17 H, 4,6-dithia-5-(2-octylphenyl)nonanedioic acid], 6.31 µM.
On to `C#CCCCCCCCCCCc1ccccc1C(SCCC(=O)O)SCCC(=O)O` [2 2 C10 H20 CCH H, 4,6-Dithia-5-[2-(11-dodecynyl)phenyl]nonanedioic acid], for which the Kb was 0.398 µM.
The figure for `CCCCCCCCCCC#Cc1ccccc1C(SCCC(=O)O)SCCC(=O)O` [2 2 CCC10 H21 H, 4,6-Dithia-5-[2-(1-dodecyn-1-yl)phenyl]nonanedioic acid] is 0.794 µM.
The result for `CCCCCCCCCC/C=C/c1ccccc1C(SCCC(=O)O)SCCC(=O)O` [2 2 CHCHC10 H21 trans H, 4,6-Dithia-5-[2-(1-trans-dodecenyl)phenyl]nonanedioic acid] reads 1.58 µM.
The result for `O=C(O)CCSC(SCCC(=O)O)c1cccc(CCCCCCCCc2ccccc2)c1` [2 2 H C8 H16 phenyl, 4,6-dithia-5-[3-(8-phenyloctyl)phenyl]nonanedioic acid] reads 1 µM.
Consider `CCCCCCCCCOc1cccc(C(SCCC(=O)O)SCCC(=O)O)c1` [2 2 H OC9 H19, 4,6-dithia-5-(3-nonyloxyphenyl)nonanedioic acid], for which the Kb is 1.26 µM.
Take `CCCCCCCCCCCOc1cccc(C(SCCC(=O)O)SCCC(=O)O)c1` [2 2 H OC11 H23, 4,6-dithia-5-(3-undecyloxyphenyl)nonanedioic acid]: the Kb is 0.794 µM.
The result for `CCCCC/C=C\C/C=C\COc1cccc(C(SCCC(=O)O)SCCC(=O)O)c1` [2 2 H OCH2 CHCHCH2 CHCHC5 H11, 4,6-dithia-5-[3-(2(Z),5(Z)-undecadienyloxy)phenyl]nonanedioic acid] reads 0.794 µM; that for `CCCCCCCCCOc1ccccc1C(SCCC(=O)O)SCCC(=O)O` [2 2 OC9 H19 H, 4,6-dithia-5-(2-nonyloxyphenyl)nonanedioic acid], 1.58 µM.
On to `CCCCCCCCCCCOc1ccc(Br)cc1C(SCCC(=O)O)SCCC(=O)O` [2 2 OC11 H23 Br, 4,6-dithia-5-(5-bromo-2-undecyloxyphenyl)nonanedioic acid], for which the Kb was 1 µM.
On to `CCCCCCCCCCCOc1ccc(OC)cc1C(SCCC(=O)O)SCCC(=O)O` [2 2 OC11 H23 CH3 O, 4,6-dithia-5-(5-methoxy-2-undecyloxyphenyl)nonanedioic acid], for which the Kb was 1.26 µM.
The result for `CCCCCCCCCCCOc1ccc([N+](=O)[O-])cc1C(SCCC(=O)O)SCCC(=O)O` [2 2 OC11 H23 NO2, 4,6-dithia-5-(5-nitro-2-undecyloxyphenyl)nonanedioic acid] reads 0.794 µM.
On to `CCCCCCCCCCCOc1ccc(O)cc1C(SCCC(=O)O)SCCC(=O)O` [2 2 OC11 H23 OH, 4,6-dithia-5-(5-hydroxy-2-undecyloxyphenyl)nonanedioic acid], for which the Kb was 1 µM.
The figure for `CCCCC/C=C\C/C=C\COc1ccccc1C(SCCC(=O)O)SCCC(=O)O` [2 2 OCH2CHCHCH2CHCHC5 H11 H, 4,6-dithia-5-[2-(2(Z),5(Z)-undecadienyloxy)phenyl]nonanedioic acid] is 1 µM; for `CCCCCCCCCCCSc1ccccc1C(SCCC(=O)O)SCCC(=O)O` [2 2 SC11 H23 H, 4,6-Dithia-5-(2-undecylthiophenyl)nonanedioic acid] it is 1 µM.
Turning to `CCCCc1ccc(CCCCc2ccccc2C(SCCC(=O)O)SCCC(=O)O)cc1` [2 2 [drawing 19] H, 4,6-Dithia-5-[2-(4-(4-butylphenyl)butyl)phenyl]nonanedioic acid], the Kb was 2.51 µM.
For `CCCc1c(OCCCCCOc2ccccc2C(SCCC(=O)O)SCCC(=O)O)ccc(C(C)=O)c1O` [4,6-Dithia-5-[2-(5-(4-acetyl-3-hydroxy-2-propylphenoxy)-pentoxy)phenyl]nonanedioic acid], the Kb is 0.251 µM.
The figure for `CCCCCCCCCCCOc1ccccc1C(C)(SCCC(=O)O)SCCC(=O)O` [4,6-dithia-5-methyl-5-(2-undecyloxyphenyl)nonanedioic acid] is 5.01 µM.
The result for `CCCCCCCCCCCCc1ccccc1C(SCCC(=O)O)[S+]([O-])CCC(=O)O` (stereo not drawn) [5-(2-dodecylphenyl)-4-sulfinyl-6-thianonanedioic acid] reads 1.58 µM; that for `CCCCCCCCCCCCc1ccsc1C(SCCC(=O)O)SCCC(=O)O` [Formula (V) 2 2 C12 H25 H, 4,6-dithia-5-(3-dodecyl-2-thienyl)nonanedioic acid], 1.26 µM.
The figure for `CCCCCCCCCCCCc1csc(C(SCCC(=O)O)SCCC(=O)O)c1` [Formula (V) 2 2 H C12 H25, 4,6-Dithia-5-(4-dodecyl-2-thienyl)nonanedioic acid] is 3.16 µM.
